{"source": "patent US20250244310A1", "about": "“METHODS OF IDENTIFICATION AND TARGETING OF MASTER KINASES IN CANCER” (The Trustees of Columbia University in the City of New York, priority 2022, published 2025)", "key": {"[1]": {"test_system": "phosphorylation of PKCδ on tyr-311", "test": "Western blot of GPM PDOs incubated with IGF-I, IGF-II or insulin", "type": "cell-based, human", "conditions": "IGF-I 10 ng/ml, IGF-II 10 ng/ml, insulin 100 ng/ml, FIGS. 14b, c", "excerpt": "(§1) V9131), and j-actin 1:10,000 (Sigma, no. A5441)."}, "PPR GBM PDOs": {"test_system": "PPR GBM PDOs", "test": "Irradiation-drug combination viability, PPR PDOs", "type": "cell-based, human", "protocol": "(§2) Cells were cultured in DMEM/F12 medium supplemented with N-2, B-27, EGF and FGF. Cells were plated in 130 μl in opaque white 96-well plates. Twenty-four hrs later cells were treated with 3-fold serial dilutions of compounds as indicated in six replicates for 72 hrs. Viability was determined using CellTiterGlo assay reagent (Promega, G7570) and GloMax-Multi+ Microplate Multimode Reader (Promega). For the irradiation-drug combination treatment, PDOs cells were plated in 96 well plates 24 hrs before treatment. Cells were treated with 3-fold serial dilutions of M3814 two hrs before exposure to various irradiation doses (2, 4, 8 Gy at 0.7 Gy/min) from a ^137Cs source (GammaCell 40 irradiator, Teratronics). Mock irradiated cells were cultured in parallel. Viability was determined 96 hrs later using CellTiterGlo assay reagent (Promega, G7570) and GloMax-Multi+ Microplate Multimode Reader (Promega). Data are mean±s.d. of the viability ratio from 6 observations in 8 PPR and 8 GPM PDOs. Experiments were performed at least twice with similar results. Clonogenic assays for the evaluation of irradiation-drug combination were performed in 96 well plates. Each experimental point was plated in 3 independent 96 well plates. The number of wells containing PDO spheres were scored and the value of control untreated cell was considered 100% clonogenicity for the specific PDO. […]"}, "GPM PDOs": {"test_system": "GPM PDOs", "test": "Irradiation-drug combination viability, GPM PDOs", "type": "cell-based, human", "conditions": "eight GPM PDOs; FIG. 5k", "protocol": "as §2"}, "[2]": {"test_system": "phosphorylation of serine-343 of NBS1 and serine-824 of KAP1", "test": "Western blot of PPR PDO cells, irradiation plus nedisertib: double-strand break markers", "type": "cell-based, human", "conditions": "PPR PDOs, until 24 hours after irradiation, FIG. 5l", "excerpt": "as §1"}, "γH2AX foci": {"test_system": "γH2AX foci", "test": "Immunofluorescence analysis of γH2AX foci in PPR PDO cells", "type": "cell-based, human", "conditions": "IR 4 Gy plus nedisertib 556 nM, 0-24 hr, FIG. 5m", "protocol": "Cells were fixed with 4% paraformaldehyde, permeabilized with cold methanol for 90 seconds at 4° C., and blocked with 5% BSA, 0.05% Triton X-100 in PBS for 30 minutes. Cells were exposed to primary antibody phospho-H2AX 1:500 (S139, CST, #2577) for one hour at room temperature followed by Cy3-conjugated anti rabbit (Invitrogen, A10520) for one hour at room temperature. Nuclei were stained with DAPI (Sigma). Images were acquired using a Nikon Ti Eclipse inverted microscope for spinning-disk confocal microscopy equipped with a Plan Apochromat 60× oil/1.4 NA DIC objective. Counting of TH2AX foci in individual nuclei were analyzed by ImageJ (NIH, Bethesda, USA) by specific in-built find Maxima>Prominence>Point Selection plug-in. Minimum 50 nuclei in at least ten representative images were included for analysis in each treatment group."}, "PPR and GPM PDOs": {"test_system": "PPR and GPM PDOs", "test": "Clonogenic assay for irradiation-drug combination", "type": "cell-based, human", "conditions": "two PPR and GPM PDOs, irradiation plus nedisertib; FIG. 15b", "protocol": "as §2"}, "[3]": {"test_system": "serine-2056 phosphorylation of DNA-PKcs", "conditions": "irradiated PPR PDO cells; FIG. 5l", "quoted_text": "Cells were lysed in RIPA buffer (50 mM Tris-HCl pH 7.5, 150 mM NaCl, 1 mM EDTA, 1% NP40, 0.5% sodium dexoycholate, 0.1% sodium dodecyl sulfate, 1.5 mM Na3VO4, 50 mM sodiumfluoride, 10 mM sodium pyrophosphate, 10 mM β-glycerolphosphate and EDTA-free protease inhibitor cocktail; Roche). Lysates briefly sonicated, cleared by centrifugation at 15,000 r.p.m. for 15 min at 4° C., separated by SDS-polyacrylamide gel electrophoresis and transferred to polyvinylidene difluoride membrane. Membranes were blocked in Tris-buffered saline with 5% nonfat milk and 0.1% Tween 20 and probed with primary antibodies overnight at 4° C. Antibodies0 and concentrations were as follows: p-DNA-PK 1:1,000 (Ser2056, CST, #68716), DNA-PK 1:1,000 (CST, #38168), p-NBS1 1:1,000 (Ser343, CST, #3001), NBS1 1:1,000 (CST, #81234), p-KAP1 1:1,000 (Ser824, Abcam, ab133440), KAP1 1:1,000 (Abcam, ab109287), p-CHK1 (Ser317, CST, #12302), CHK1 (CST, #2360), p-PKCδ 1:1,000 (Tyr311, CST, #20555), PKCδ 1:1,000 (CST, #96165), p-STAT3 1:1,000 (Tyr705, CST, #91455), STAT3 1:1,000 (CST, #49045) p-AKT 1:1,000 (Ser473, CST, #40605), p-AKT 1:1,000 (Thr308, CST, #13038S), AKT 1:1,000 (CST, #49615), p-ERK1/2 1:1,000 (Thr202/Tyr204, CST, #4370), ERK1/2 1:1,000 (CST, #9102), GAPDH 1:10,000 (Abcam, ab9484), Vinculin 1:10,000 (Sigma, no. V9131), and j-actin 1:10,000 (Sigma, no. A5441). […]"}, "BRCA cell lines": {"test_system": "BRCA cell lines", "test": "DepMap menadione survival ratio, BRCA cell lines", "type": "cell-based", "conditions": "26 BRCA cell lines from DepMap; p=0.008", "excerpt": "(§3) We used the BRCA and LUSC cell lines cohorts from DepMap for which both RNA-Seq expression and menadione survival ratio from PRISM Repurposing Primary Screen were available (n=26 for BRCA and n=71 for LUSC)^94. For each cell line, we used the transcriptomic profile to calculated the NES of the four functional GBM subtypes by MWW-GST using gene signatures obtained from the analysis of TCGA samples. Each cell line was classified according the highest subtype activity (NES). We assessed the difference in survival ratio between the mitochondrial cell lines and the others using two-sided Student t-test, unequal variance."}, "LUSC cell lines": {"test_system": "LUSC cell lines", "test": "DepMap menadione survival ratio, LUSC cell lines", "type": "cell-based", "conditions": "71 LUSC cell lines from DepMap; p=0.076", "excerpt": "as §3"}, "GPM PDO cells": {"test_system": "GPM PDO cells", "test": "Colony-forming (clonogenic) assay of GPM PDO cells treated with BJE6-106", "type": "cell-based, human", "conditions": "FIG. 5c", "protocol": "Cell growth and clonogenic assay. Time course analysis of the cellular growth of shPRKCD infected PDOs or the empty vector was performed by plating 4,500 cells per well in 96-well plates. Viability was determined using CellTiterGlo assay reagent (Promega, G7570) and the GloMax-Multi+ Microplate Multimode Reader (Promega). Data are mean±s.d. of five replicates, and experiments were repeated twice. For clonogenic assay of PDO cells treated with increasing concentration of BJE6-106, 1,500 cells were plated in 6-well plates in triplicate. Cells were fixed in methanol and stained with crystal violet 2 weeks later. Colonies with more than 50 cells were scored. Data are mean±s.d. of triplicate observations from one representative experiment. Experiments were repeated twice."}, "[4]": {"test_system": "AKT-ser-473 and STAT3-tyr-705 phosphorylation", "test": "Western blot of GPM PDO cells treated with BJE6-106", "type": "cell-based, human", "conditions": "BJE6-106 at 50 µM, time course, FIG. 5d", "excerpt": "as §1"}}}
{"molecule": "IGF1: growth factor used to stimulate GPM PDOs (10 ng/ml)", "values": [{"measurement": "phosphorylation of PKCδ on tyr-311", "setting": "[1]", "value": "induced phosphorylation of PKCδ on tyr-311"}]}
{"molecule": "IGF2: growth factor used to stimulate GPM PDOs (10 ng/ml)", "values": [{"measurement": "phosphorylation of PKCδ on tyr-311", "setting": "[1]", "value": "induced phosphorylation of PKCδ on tyr-311"}]}
{"molecule": "COc1ccc([C@@H](O)c2cc(-c3ncnc4cc(N5CCOCC5)ccc34)c(F)cc2Cl)nn1", "note": "[nedisertib]", "values": [{"measurement": "tumor cell viability, nedisertib-IR combination compared to each individual treatment", "setting": "PPR GBM PDOs; eight PPR GBM PDOs, FIG. 5k", "value": "marked reduction of tumor cell viability"}, {"measurement": "radiation dose enhancement factor (DEF)", "setting": "PPR GBM PDOs; six of the eight PPR PDOs, even at the lowest concentrations of nedisertib", "value": "> 2"}, {"measurement": "effect of nedisertib-IR combination on viability", "setting": "GPM PDOs", "value": "virtually ineffective"}, {"measurement": "phosphorylation of serine-343 of NBS1 and serine-824 of KAP1 (unrepaired DNA damage)", "setting": "[2]", "value": "sustained phosphorylation of serine-343 of NBS1 and serine-824 of KAP1"}, {"measurement": "number of γH2AX foci", "setting": "γH2AX foci", "value": "remained elevated throughout the course of the experiment"}, {"measurement": "radiosensitivity by clonogenic assay", "setting": "PPR and GPM PDOs", "value": "confirmed these results"}, {"measurement": "serine-2056 phosphorylation of DNA-PKcs", "setting": "[3]", "value": "inhibited serine-2056 phosphorylation of DNA-PKcs"}]}
{"molecule": "CC1=CC(=O)c2ccccc2C1=O", "note": "[menadione]", "values": [{"measurement": "menadione survival ratio, difference between mitochondrial cell lines versus the others, log2(FC)", "setting": "BRCA cell lines", "value": "−1.31"}, {"measurement": "menadione survival ratio, difference between mitochondrial cell lines versus the others, log2(FC)", "setting": "LUSC cell lines", "value": "−0.63"}]}
{"molecule": "CC1(C)C=Cc2cc(CCn3c4ccccc4c4ccccc43)cc(C=O)c2O1", "note": "[BJE-10676]", "values": [{"measurement": "colony formation", "setting": "GPM PDO cells", "value": "dose-dependent inhibition of colony formation"}, {"measurement": "AKT-ser-473 and STAT3-tyr-705 phosphorylation", "setting": "[4]", "value": "time-dependent decrease of AKT-ser-473 and STAT3-tyr-705 phosphorylation"}]}
{"molecule": "insulin: hormone used to stimulate GPM PDOs (100 ng/ml)", "values": [{"measurement": "phosphorylation of PKCδ on tyr-311", "setting": "[1]", "value": "induced phosphorylation of PKCδ on tyr-311"}]}
